# How the values were obtained:
# dermal inflammation = conditions: mice; cited from earlier work
# [1] = target: membrane-associated isoprenyl-S-cysteinyl methyltransferase (Homo sapiens, UniProt O60725); conditions: cited from earlier work
# [2] = test system: myeloperoxidase (MPO), neutrophil marker in TPA-treated ears; experiment: Mouse ear model of TPA-induced contact inflammation: MPO inhibition (dermal neutrophil infiltration); type: in vivo; conditions: topical on TPA-treated mouse ear, 6 mm biopsy punches; for inhibition in vivo at 0.2 mg: dose 0.2 mg/20 μL; for inhibition in vivo at 0.8 mg: dose 0.8 mg/20 μL
# Text: (§1) G. et al., Anti-inflammatory Drugs, Clin. Pharmacol. Ther. 16, 900-4 (1974); Young et al., Tachyphylaxis in 12-Otetradecanoylphorbolacetate-and Arachidonic Acid-Induced Ear Edema; J. Invest. Dermatol. 80:48-52, (1983); Tramposch et al., In Vivo Models of Inflammation, (Morgan D W, Marshall L A eds), Birkha{umlaut over ( )}user Verlag: Basel, pp 179-204, 1999; and Gordon et al., Topical N-Acetyl-S-Farnesyl-L-Cysteine Inhibits Mouse Skin Inflammation, and Unlike Dexamethasone, Its Effects Are Restricted to the Application Site, J. Invest. Dermatol., 128(3):643-54, 2008 March)]. Moreover, the mouse ear model has been used by various groups to identify and compare members of differing classes of anti-inflammatory agents with multiple mechanisms of action (reviewed in Tramposch et al., 1999, supra).
# To assay for inhibition of dermal neutrophil infiltration by S-isoprenyl and S-farnesyl cysteine compounds, a standard method was used (see Bradley et al., 1982, supra; Young et al., 1983, supra; De Young et al, “Edema and Cell Infiltration in the Phorbol Ester-treated Mouse Ear are Temporally Separate and can be Differentially Modulated by Pharmacologic Agents”, Agents Actions, 26(3-4): 335-41 (March 1989); and Rao et al. (1993) Comparative Evaluation of Arachidonic Acid (AA)-and Tetradecanoylphorbol Acetate (TPA)-Induced Dermal Inflammation, Inflammation 17:723-41). Briefly, we homogenized 6 mm biopsy punches taken from both compound-treated ears as well as TPA-treated and non-treated control groups. We quantitated the levels of MPO by a colorimetric reaction that was measured spectrophotometrically. The percent inhibition of neutrophil infiltration by each S-isoprenyl and S-farnesyl cysteine compound was determined by comparing the average MPO levels in the presence and absence of these compounds. The calculation for percent inhibition of MPO was determined similar to that as described for calculating the percent edema inhibition, see the Edema Inhibition protocol, supra. […] Gordon et al., “Topical N-acetyl-S-farnesyl-L-cysteine Inhibits Mouse Skin Inflammation, and Unlike Dexamethasone, its Effects Are Restricted to the Application Site”, J. Invest. Derm., Vol. 128 pp. 643-654 (2008).
# TPA-treated ears of mice [3] = experiment: Mouse ear model of TPA-induced contact inflammation: edema inhibition (ear thickness); type: in vivo; conditions: topical on TPA-treated mouse ear, 24 hours; for inhibition in vivo at 0.2 mg: dose 0.2 mg/20 μL; for inhibition in vivo at 0.8 mg: dose 0.8 mg/20 μL
# Text: as §1
# The protocol for inducing in vivo acute contact inflammation on the ears of live mice has been described elsewhere (reviewed in Tramposch, 1999, supra). In brief, mice were sedated and their ears were treated with 1.2 μg/20 uL TPA (i.e., tetradecanoylphorbol-13-acetate). […] After 24 hours, the mice were sacrificed and edema was measured by taking micrometer readings of each ear. The percent inhibition of edema was determined by taking the average ear thickness of compound-treated ears and dividing it by the average thickness of 12 ears that only received TPA and subtracting that value from 100%. These values were corrected for the thickness of normal, non TPA-treated mouse ears of littermate controls. […] ED50 values were calculated as described in Gordon et al., “Topical N-acetyl-S-farnesyl-L-cysteine Inhibits Mouse Skin Inflammation, and Unlike Dexamethasone, its Effects Are Restricted to the Application Site”, J. Invest. Derm., Vol. 128 pp. 643-654 (2008).
# TPA-treated ears of mice [4] = experiment: Mouse ear model of TPA-induced contact inflammation: erythema inhibition (Δa* redness, chroma meter); type: in vivo; conditions: dose 0.2 mg/20 μL, topical on TPA-treated mouse ear, 24 hours post treatment
# Text: as §1
# Another well documented biomarker of skin inflammation is skin redness, termed erythema, which is caused by capillary congestion and dilation in response to various chemical and environmental insults (see Denig, N. I. et al., Irritant Contact Dermatitis. Clues to Causes, Clinical Characteristics, and Control, Postgrad Med., May (1998); 103(5):199-200, 207-8, 212-3). […]
# membrane-associated isoprenyl-S-cysteinyl methyltransferase, sequence (O60725 whole entry): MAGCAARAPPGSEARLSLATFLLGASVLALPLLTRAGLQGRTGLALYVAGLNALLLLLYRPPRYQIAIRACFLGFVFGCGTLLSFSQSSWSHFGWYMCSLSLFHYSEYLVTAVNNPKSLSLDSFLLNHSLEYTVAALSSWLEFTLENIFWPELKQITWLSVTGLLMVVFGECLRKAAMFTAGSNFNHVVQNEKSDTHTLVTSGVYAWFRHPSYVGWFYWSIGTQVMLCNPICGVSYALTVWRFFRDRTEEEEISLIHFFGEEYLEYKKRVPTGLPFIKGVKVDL
smiles,measurement,setting,value
"CC(=O)N[C@@H](CSC/C=C(\C)CC/C=C(\C)CCC=C(C)C)C(=O)O [AFC, N-acetyl-S-farnesyl-L-cysteine]",effect on dermal inflammation,dermal inflammation,effectively reduces dermal inflammation
same,inhibition of isoprenyl-S-cysteinyl methyltransferase (mode),[1],competitive inhibitor
CNC(=S)N[C@@H](CSC/C=C(\C)CC/C=C(\C)CCC=C(C)C)C(=O)O [Compound A],inhibition in vivo at 0.2 mg,[2],8.8 ± 6.29%
same,inhibition in vivo at 0.2 mg,TPA-treated ears of mice [3],8.55 ± 3.7%
CC/N=C(\NCC)N[C@@H](CSC/C=C(\C)CC/C=C(\C)CCC=C(C)C)C(=O)O [Compound B],% Inhibition Erythema,TPA-treated ears of mice [4],0.51 ± 10.81 — %
CC(C)=CCC/C(C)=C/CC/C(C)=C/CSC[C@H](NC(=O)N1CCOCC1)C(=O)O [Compound C],inhibition in vivo at 0.8 mg,[2],61.8%
same,inhibition in vivo at 0.8 mg,TPA-treated ears of mice [3],34.1%
CC(C)=CCC/C(C)=C/CC/C(C)=C/CSC[C@H](NC(=O)N1CCCCC1)C(=O)O [Compound D],inhibition in vivo at 0.8 mg,[2],83.7%
same,inhibition in vivo at 0.8 mg,TPA-treated ears of mice [3],32.6%
CC(C)=CCC/C(C)=C/CC/C(C)=C/CSC[C@H](NC(=O)Nc1ccccc1)C(=O)O [Compound E],inhibition in vivo at 0.8 mg,[2],75.4%
same,inhibition in vivo at 0.8 mg,TPA-treated ears of mice [3],18.2%
CC(C)=CCC/C(C)=C/CC/C(C)=C/CSC[C@H](NC(=O)N(c1ccccc1)c1ccccc1)C(=O)O [Compound F],inhibition in vivo at 0.8 mg,[2],79.5%
same,inhibition in vivo at 0.8 mg,TPA-treated ears of mice [3],4.66%
CC(C)=CCC/C(C)=C/CC/C(C)=C/CSC[C@H](NC(=O)N1CCNC1=O)C(=O)O [Compound G],inhibition in vivo at 0.8 mg,[2],58%
same,inhibition in vivo at 0.8 mg,TPA-treated ears of mice [3],13.4%
CC(C)=CCC/C(C)=C/CC/C(C)=C/CSC[C@H](Nc1ccnc(N)n1)C(=O)O [Compound H],inhibition in vivo at 0.2 mg,[2],63.5 ± 7.03%
same,inhibition in vivo at 0.8 mg,[2],89%
same,inhibition in vivo at 0.2 mg,TPA-treated ears of mice [3],39.7 ± 1.67%
same,inhibition in vivo at 0.8 mg,TPA-treated ears of mice [3],50.1%
CC(C)=CCC/C(C)=C/CC/C(C)=C/CSC[C@H](Nc1ccnc(NN)n1)C(=O)O [Compound I],inhibition in vivo at 0.2 mg,[2],23.1 ± 6.79%
same,inhibition in vivo at 0.2 mg,TPA-treated ears of mice [3],24.7 ± 16.5%
CC(C)=CCC/C(C)=C/CC/C(C)=C/CSC[C@H](Nc1ncccn1)C(=O)O [Compound J],inhibition in vivo at 0.2 mg,TPA-treated ears of mice [3],1.89 ± 7.75%

# Source: US20110053901A1, “ACETYL MIMIC COMPOUNDS FOR THE INHIBITION OF ISOPRENYL-S-CYSTEINYL METHYLTRANSFERASE” (SIGNUM BIOSCIENCES, INC., priority 2008, published 2011)
